# Laboratory results taken from patent publication US20180153826A1, “MATERIALS AND METHODS FOR THE TREATMENT OF CYSTIC FIBROSIS” (UNIVERSITY OF FLORIDA RESEARCH FOUNDATION, INC., priority 2015, published 2018).
# Assays:
# SCFA/HCO3^− exchange = SCFA/HCO3^− exchange activity (isobutyrate-dependent HCO3^− secretion); parameters: species or system rat; conditions: 10 μM serosa; 25 mM isobutyrate lumen
# Experimental: Stripped mucosal sheets were mounted into Ussing chambers (window area=0.3-0.5 cm^2, Physiologic Instruments, San Diego, Calif.). The mucosal side of tissue was bathed with an unbuffered HCO3^−-free Cl^− Ringer solution (see Table 2 for detailed composition) circulated by a gas lift with 100% O2 while the serosal side was bathed with buffered Cl^− Ringer solution (pH 7.4) that contained 25 mM HCO3^− and gassed with 5% CO2/95% O2. Each side contained 3-5 ml of solution and the temperature of the solution was adjusted to and maintained at 37° C. by heated water-jacketed reservoirs. […]
# Two types of approaches were used in the measurement of colonic HCO3^− secretion, namely, measurement of lumen pH or pH stat titration of net alkalinization by colonic mucosa. […] The amount of the acid delivered per unit time per surface area was used to quantitate HCO3^− secretion by the mucosa. Measurements were recorded continuously and mean values for consecutive 5 or 10 min periods were averaged. The rate of HCO3^− secretion (JHCO3) is expressed as μEq/hr/cm^2. The short-circuit current (Isc) was measured in microamperes (μA) and converted into μEq/hr/cm^2. Tissue resistance (R, Ω cm^2) was calculated from Ohm's law.
# SCFA/HCO3^− exchange activity was calculated as ΔJHCO3 (the difference between JHCO3 in the presence minus absence of luminal isobutyrate).
# [1] = test system: cAMP-dependent HCO3^− secretion; experiment: Cyclic nucleotide (cAMP)-dependent HCO3^− secretion, lumen Cl^−/SCFA-free; parameters: species or system rat
# Experimental: Stripped mucosal sheets were mounted into Ussing chambers (window area=0.3-0.5 cm^2, Physiologic Instruments, San Diego, Calif.). The mucosal side of tissue was bathed with an unbuffered HCO3^--free Cl^- Ringer solution (see Table 2 for detailed composition) circulated by a gas lift with 100% O2 while the serosal side was bathed with buffered Cl^- Ringer solution (pH 7.4) that contained 25 mM HCO3^- and gassed with 5% CO2/95% O2. Each side contained 3-5 ml of solution and the temperature of the solution was adjusted to and maintained at 37° C. by heated water-jacketed reservoirs. Experiments were performed under short-circuit conditions (Voltage-Current Clamp, VCC MC8; Physiologic Instruments, San Diego, Calif.) to maintain the transepithelial potentials at 0 mV, except for brief interruption at 20-second intervals for recording of open-circuit potential (VT, mV). Two types of approaches were used in the measurement of colonic HCO3^- secretion, namely, measurement of lumen pH or pH stat titration of net alkalinization by colonic mucosa. […] Radiometer Analytical, Villeurbanne, France). The amount of the acid delivered per unit time per surface area was used to quantitate HCO3^- secretion by the mucosa. Measurements were recorded continuously and mean values for consecutive 5 or 10 min periods were averaged. […] The short-circuit current (Isc) was measured in microamperes (μA) and converted into μEq/hr/cm^2. Tissue resistance (R, Ω cm^2) was calculated from Ohm's law. Colon segments were prepared and treated as in the secretagogue-induced HCO3^- secretion experiments except that they were bathed luminally with HCO3^--free Ringer solution that contained no isobutyrate and no Cl^-. Cyclic nucleotide-dependent HCO3^- secretion was calculated as […] (the difference between JHCO3 after minus JHCO3 before the addition of forskolin). When inhibitor was used, it was added at 30 min before […] or forskolin.
# [2] = test system: colon mucosa of wild type mice; experiment: HCO3^− secretion in colon mucosa of wild type (CaSR^+/+) mice; parameters: species or system mouse
# Experimental: FIGS. 13A-13F. […] Colonic mucosa from wild type (CaSR^+/+) (A-C) and knockout (CaSR^-/-) mice (D-F) were isolated and treated, and activities of the three HCO3^- transporters assayed as in rats. Data are means±SEM of 4-6 experiments. *p<0.05 vs. control (1st bar). Experiments were performed using non-fasting male Sprague-Dawley rats and C57BL/6 mice. Rats weighting 100-400 g were obtained from Charles River Laboratories. Mice lacking CaSR expression in intestinal epithelial cells (CaSR^-/-) and their CaSR^+/+ littermates were bred and maintained. CaSR^-/- mice were generated as previously described. Briefly, CaSR flox/flox mice were bred with transgenic mice expressing Cre Recombinase under the control of the villin 1 promoter and genotyped prior to all experiments after an approximate 10-12 generations. Mice were used at 5-10 weeks of age. Animals were fed and maintained on regular chow (Harlan) with free access to water before sacrifice. Animals were sacrificed with standard CO2 inhalation followed by cervical dislocation. The colons were isolated, cut open along the mesenteric border into a flat sheet, and flushed with ice-cold Ringer solutions. Mucosa from the distal colon were carefully hand-stripped off of serosal, muscular and submucosal layers as described and a pair of adjacent mucosal segments were incised and mounted into Ussing chambers. In some experiments, stripped mucosa was incised longitudinally into two equal pieces in order to facilitate comparisons between control and treatment. […] To verify that the effects of […] occurred via the CaSR, additional studies on the effect of […] were performed in intestinal epithelium-specific CaSR knockout mice (FIG. 13). Intestinal epithelium-specific CaSR knockout mice were used together with their wild type littermates.
# [3] = test system: colon mucosa of CaSR null mice; experiment: HCO3^− secretion in colon mucosa of CaSR null (CaSR^−/−) mice; parameters: species or system mouse
# Experimental: FIGS. 13A-13F. […] Colonic mucosa from wild type (CaSR^+/+) (A-C) and knockout (CaSR^-/-) mice (D-F) were isolated and treated, and activities of the three HCO3^- transporters assayed as in rats. Data are means±SEM of 4-6 experiments. *p<0.05 vs. control (1st bar). Experiments were performed using non-fasting male Sprague-Dawley rats and C57BL/6 mice. Rats weighting 100-400 g were obtained from Charles River Laboratories. Mice lacking CaSR expression in intestinal epithelial cells (CaSR^-/-) and their CaSR^+/+ littermates were bred and maintained. CaSR^-/- mice were generated as previously described. Briefly, CaSR flox/flox mice were bred with transgenic mice expressing Cre Recombinase under the control of the villin 1 promoter and genotyped prior to all experiments after an approximate 10-12 generations. Mice were used at 5-10 weeks of age. Animals were fed and maintained on regular chow (Harlan) with free access to water before sacrifice. Animals were sacrificed with standard CO2 inhalation followed by cervical dislocation. The colons were isolated, cut open along the mesenteric border into a flat sheet, and flushed with ice-cold Ringer solutions. Mucosa from the distal colon were carefully hand-stripped off of serosal, muscular and submucosal layers as described and a pair of adjacent mucosal segments were incised and mounted into Ussing chambers. […]
# [4] = test system: CFTR-mediated and non CFTR-mediated HCO3^− secretion; experiment: Isc and pH stat HCO3^− secretion with/without lumen Cl^−, CFTR inhibitors or DIDS (FIGS. 5, 6)
# Text: FIG. 3. Experimental approach 1: The Ussing chamber pH-stat set up used to monitor and measure HCO3^- secretion by colonic mucosa. FIG. 4. Experimental Approach 2: Measurement of HCO3^- secretion by colonic mucosa in the presence of apical NPPB/Glibenclamide. FIGS. 5A-5F. Activation of CaSR by […] inhibits CFTR-mediated HCO3^- secretion (JHCO3) and ISC but stimulates non CFTR-mediated HCO3^- secretion (JHCO3) and Isc. Physiological approach assayed with, versus without, lumen Cl^-. FIGS. 6A-6F. Activation of CaSR by […] inhibits CFTR-mediated HCO3^- secretion (JHCO3) and ISC but stimulates CFTR-independent HCO3^- secretion (JHCO3) and Isc. Pharmacological approach assayed with, and without, CFTR transporter inhibitors or AE inhibitor DIDS.
smiles,measurement,setting,value
"COc1cccc([C@@H](C)NCCCc2ccccc2Cl)c1.Cl [R568, 2-Chloro-N-[(1R)-1-(3-methoxyphenyl)ethyl]-benzenepropanamine hydrochloride]",isobutyrate-dependent HCO3^− secretion,SCFA/HCO3^− exchange,significantly stimulated
same,effect on FSK-induced HCO3^− secretion,"[1]; 10 μM serosa after forskolin, lumen Cl^−/SCFA-free",almost completely reversed
same,Isc response in the absence of serosal HCO3^−,[1]; no serosal HCO3^− (data not shown),failed to stimulate or to inhibit
same,effect on forskolin-stimulated Isc,"[1]; subsequent addition after forskolin, lumen Cl^−-free",inhibited
same,Cl^−-dependent HCO3^− secretion,[2],stimulated
same,SCFA-dependent HCO3^− secretion,[2],stimulated
same,cAMP-dependent HCO3^− secretion,[2],inhibited
same,"R568 effects on Cl^−-, SCFA- and cAMP-dependent HCO3^− secretion",[3],abolished
same,HCO3^− secretion (pH stat),[4]; absence of lumen Cl^−,net inhibition
same,phase I Isc stimulation induced by R568,[4]; absence of lumen Cl^−,abolished
same,phase II Isc inhibition,[4]; absence of lumen Cl^−,remained unchanged or slightly reduced
same,HCO3^− secretion (pH stat),[4]; presence of lumen Cl^−,net stimulation
same,Isc response,[4]; presence of lumen Cl^−,two-phase response
